Results on 14 compounds are retold here after publication PMC6151710 (Molecules : A Journal of Synthetic Chemistry and Natural …, 2017).

Usually IC50 stands for the concentration at which inhibition is half-maximal.

Data set [1] deals with CYP3A4 (Homo sapiens, UniProt P08684). As to the kind of experiment: IC50 shift assay (pre-incubation with/without NADPH). It is filed as in vitro ADME. As to conditions: for IC50: HLM; for IC50 Shift (fold): IC50 (−) NADPH versus (+) NADPH pre-incubation. On the procedure:
IC50 shift assay. In the present study, an IC50 shift assay was performed using a two-step procedure. […] After pre-incubation, a 0.02 mL aliquot of the mixture was added to a mixture containing a standard CYP substrate (final concentrations at the Km) in 0.18 mL of potassium phosphate buffer to measure CYP activities. After incubation for 15 min at 37 °C, the reactions were ceased by adding four volumes of pre-cooled methanol. The supernatants were centrifuged at 14,000 rpm for 15 min and then stored at −20 °C until the LC/MS/MS analysis of metabolites.
Analysis of samples. The LC/MS/MS method was conducted as described in [59].
IC50 value calculation. The IC50 value was calculated using GraphPad Prism (version 4.0) software (GraphPad Software, San Diego, CA, USA).

For data set [2], the system named is KunMing (KM) mice. As to the kind of experiment: Hepatotoxicity study in mice (GSH-depleted by BSO, CYP450 inhibition by ABT): ALT, hepatic GSH, histopathology. To be noted: for ALT activity with additional ABT treatment / histopathological evaluation of liver, with ABT: 300 mg/kg oral alone or with BSO, plus ABT 100 mg/kg i.p.; for hepatic GSH level with ABT: 300 mg/kg oral plus ABT 100 mg/kg i.p.; for histopathological evaluation of liver, co-treatment with BSO: 300 mg/kg oral plus BSO 650 mg/kg i.p., 6 or 24 h. On the procedure:
Male 6-week-old KunMing (KM) mice were purchased from the Animal Institute of the Tianjin University of Traditional Chinese Medicine (Tianjin, China), and were used after a 1-week acclimatization period. The animals were housed in mice cages in a unidirectional airflow room under controlled conditions (20–24 °C, 12:12-h light:dark cycles, and free access to water). We assured that all animals received humane care according to the criteria outlined in the “Guide for the Care and Use of Laboratory Animals” prepared by the National Academy of Sciences and published by the National Institutes of Health ((NIH) publication 86–23 revised 1985).
In the hepatotoxicity study, the mice were randomly assigned to 22 groups (n = 10/group). The mice were intraperitoneally injected with BSO (650 mg/kg) in saline (0.2 mL/20 g). The intraperitoneal dosing of ABT (100 mg/kg) in saline (0.2 mL/20 g) was simultaneous with the BSO dosing. […] Food was removed 14–16 h before BSO dosing, and was supplied again 6 h after administration of the test compounds. At 6 and 24 h, blood was collected by eyeball removal, and then the liver was removed. Plasma was separated from these blood samples, and alanine aminotransferase (ALT) was determined with a commercial kit, the GPT-UV test (Nanjing jiancheng Bioengineering Institute). A piece of each liver sample was fixed in 10% formalin, embedded in paraffin wax, sectioned, and stained with hematoxylin and eosin for histopathological evaluation.
Statistical analysis. The results from the serum ALT assay were analyzed by Kruskal–Wallis non-parametric analysis of variance followed by Mann–Whitney’s U test. For the data of the GSH assay and CYP450s relative activity, comparisons between the two groups were made by independent-samples t test. SPASS 11.5 was used for these statistical analyses. Differences were considered significant when p < 0.05 or p < 0.01.

For data set [3], the system named is mice. To be noted: oral 40 mg daily for 28 days in mice; cited from earlier work.
Data set [4] can be described thus: Phase I metabolism in mice liver microsomes, metabolite quantitation by UPLC-MS/MS MRM. Format: in vitro ADME. The method, then:
(§1) Phase I Metabolism. […] Subsequently, 150 μL of NADPH solution (final concentration of 1 mM) was added to each reaction mixture. After incubation at 37 °C for 90 min in a shaking water bath, the reaction was terminated by adding 600 μL of ice-cold methanol. The contents were vortexed for 30 s and then centrifuged at 4000 rpm for 15 min. The metabolites of psoralen and isopsoralen in the supernatant were identified by UPLC-MS/MS.
(§2) Metabolite analysis by UPLC-MS/MS. The UPLC/MS/MS method was carried out using a Waters Acquity UPLC Sample Manager and a Waters Acquity UPLC Binary Solvent Manager connected to a Waters Quattro Premier XE triple-quadruple mass spectrometer equipped with a combined ESI probe and Mass Lynx 1.4 software (Waters, Milford, MA, USA). An Acquity UPLC BEH C18 column (1.7 µm, 2.1 mm × 100 mm) was used. The instrument settings were as follows: ESI+; source temperature, 120 °C; dissolution temperature, 350 °C; capillary voltage, 3.2 kV; dissolution N2, 600 L/h; cone N2, 50 L/h. Acquisition was carried out from m/z 50 Da to 1000 Da in the total ion scan mode. MS/MS spectra were acquired from m/z 50 Da to 600 Da in the daughter ion scan mode. The solvent system consisted of solvent A (0.1% CH3COOH) and solvent B (100% ACN). The flow rate was 0.2 mL/min. The gradient elution method was 5 to 80% B over 12 min, followed by 5% B from 12 to 15 min.
(§3) Quantitation analysis of psoralen and isopsoralen metabolites by UPLC-MS/MS. […] The HPLC method and electrospray ionization were performed with the same conditions as those for metabolite analysis by UPLC-MS/MS in liver microsomes, except for the cone (30 V) and collision energy (20 V).
In general terms: Liver microsomes are vesicles of endoplasmic reticulum, rich in cytochrome P450 enzymes.

A short description of data set [5]: Phase I metabolism in human liver microsomes, metabolite quantitation by UPLC-MS/MS MRM. It is filed as in vitro ADME. On the procedure: as §1, §2, §3
Data set [6] relates to animals. Also on record: method as in PMID 19640237. To be noted: 560 mg/kg daily for 12 days; cited from earlier work.
Data set [7] concerns patients. Also on record: method as in doi:10.5021/ad.1995.7.1.51. To be noted: 4 of 80 patients, within 3.5–20 months of commencement of PUVA 5-MOP; cited from earlier work.
The mark [8] stands for this setting: 300 mg/kg oral in combination with BSO 650 mg/kg i.p., 6 h.
[9] abbreviates: 300 mg/kg oral in combination with BSO 650 mg/kg i.p., 24 h.
Setting [10] is: MRM mode, parent 50 μM, MLM 1.0 mg/mL, NADPH 1 mM, 90 min.
The mark [11] stands for this setting: MRM mode, parent 50 μM, HLM 1.0 mg/mL, NADPH 1 mM, 90 min.

Like-named read-outs stand apart in the source and are kept apart here.

CYP3A4, sequence (P08684 whole entry): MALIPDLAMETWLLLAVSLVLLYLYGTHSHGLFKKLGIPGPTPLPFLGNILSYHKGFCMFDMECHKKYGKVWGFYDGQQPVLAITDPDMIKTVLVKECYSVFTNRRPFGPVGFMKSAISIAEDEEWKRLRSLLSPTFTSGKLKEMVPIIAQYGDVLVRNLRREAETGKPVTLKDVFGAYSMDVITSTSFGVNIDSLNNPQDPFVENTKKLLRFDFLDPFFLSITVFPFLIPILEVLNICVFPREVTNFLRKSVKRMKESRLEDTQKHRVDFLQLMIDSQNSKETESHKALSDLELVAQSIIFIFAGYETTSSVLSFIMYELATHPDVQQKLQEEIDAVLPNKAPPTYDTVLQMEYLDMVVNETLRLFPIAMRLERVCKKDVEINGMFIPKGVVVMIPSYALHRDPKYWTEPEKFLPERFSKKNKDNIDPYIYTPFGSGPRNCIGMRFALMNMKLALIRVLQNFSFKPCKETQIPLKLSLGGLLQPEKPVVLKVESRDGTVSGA

Regarding `O=c1ccc2ccc3occc3c2o1` [Isopsoralen], the IC50 turned out to be 9.59 ± 1.04 µM in data set [1] (IC50 (+) NADPH, 30 min pre-incubation with NADPH) and 96.8 ± 2.21 µM in data set [1] (IC50 (−) NADPH, 30 min pre-incubation without NADPH). The results for the “IC50 Shift (fold)” value in data set [1] and in data set [1] (listed as isopsoralen) were 10.1 fold and above 3 fold, respectively. The “ALT activity with additional ABT treatment” value in data set [2] is listed as “completely suppressed the elevation of ALT activity”. In data set [2], the “histopathological evaluation of liver, with ABT” value was “completely relieved the granular degeneration and vacuolation”. In addition, the “plasma ALT activity” value is given as 30.08 IU/L in data set [2] (setting [8]); 68.99 IU/L in data set [2] (setting [9]); 22.73 IU/L in data set [2] (300 mg/kg oral, alone, 6 h); 43.20 IU/L in data set [2] (300 mg/kg oral, alone, 24 h). For the same compound, the “hepatic GSH level with ABT” value in data set [2] (at 24 h) is “ABT prevented the decrease”. The “histopathological evaluation of liver, co-treatment with BSO” value in data set [2] is given as “did not aggravate the histopathology”. Moreover, the “histopathological evaluation of liver” value is on record as “weak granular degeneration” in data set [2] (300 mg/kg oral, alone, 6 h) and “diffuse vacuolation” in data set [2] (300 mg/kg oral, alone, 24 h). Besides, the “hepatic GSH level” value in data set [2] (300 mg/kg oral, alone, at 24 h) is 9.94 ± 8.57 µM/g protein. The liver injury findings entry in data set [3] is “elevated serum ALT, AST, and/or ALP levels”.

For the compound `O=C(O)/C=C\c1ccc2occc2c1O` [M′3], in data set [4] (setting [10]), the “Peak Area MLM” value is given as 418. For the same compound, the “Peak Area HLM” value in data set [5] (setting [11]) was determined as 312.

In the case of `COc1c2ccoc2cc2oc(=O)ccc12` [5-MOP, 5-Methoxypsoralen], the “liver effect of high-dose treatment” value in data set [6] is recorded as “hepatocyte changes”. In addition, the “patients with transient elevations of liver enzymes” value in data set [7] is 5%.

As for `O=c1ccc2cc(O)c3occc3c2o1` [M′1], in data set [4] (setting [10]), the “Peak Area MLM” value is 14,513. For the same compound, the “Peak Area HLM” value in data set [5] (setting [11]) stood at 1288.

As for `O=C(O)Cc1cc2ccc(=O)oc2cc1O` [M4, 6-carboxymethyl-7-hydroxyl-coumarin], the “Peak Area MLM” value in data set [4] (setting [10]) is on record as 98,864. Further, the “Peak Area HLM” value in data set [5] (setting [11]) was 66,831.

With `O=c1ccc2cc3ccoc3cc2o1` [Psoralen], the IC50 in data set [1] (30 min pre-incubation with NADPH, read-out: IC50 (+) NADPH) is 19.5 ± 1.04 µM; in data set [1] (30 min pre-incubation without NADPH, read-out: IC50 (−) NADPH), above 200 µM. The “ALT activity with additional ABT treatment” value in data set [2] is “completely suppressed the elevation of ALT activity”. Further, the “histopathological evaluation of liver, with ABT” value in data set [2] was “completely relieved the granular degeneration and vacuolation”. For the same compound, the “plasma ALT activity” value is listed as 59.90 IU/L in data set [2] (setting [8]); 326.07 IU/L in data set [2] (setting [9]); 42.17 IU/L in data set [2] (300 mg/kg oral, alone, 6 h); 128.42 IU/L in data set [2] (300 mg/kg oral, alone, 24 h). In data set [2] (at 24 h), the “hepatic GSH level with ABT” value is “ABT prevented the decrease”. For the same compound, the “histopathological evaluation of liver, co-treatment with BSO” value in data set [2] was “did not aggravate the histopathology”. The “histopathological evaluation of liver” value is “diffuse granular degeneration” in data set [2] (300 mg/kg oral, alone, 6 h) and “diffuse vacuolation” in data set [2] (300 mg/kg oral, alone, 24 h). Also, the “hepatic GSH level” value in data set [2] (300 mg/kg oral, alone, at 24 h) is listed as 11.26 ± 3.67 µM/g protein.

In the case of `O=c1ccc2cc3c(cc2o1)OC(O)C3O` (stereo not drawn) [M5], the “Peak Area MLM” value in data set [4] (setting [10]) is given as 102,180. Moreover, the “Peak Area HLM” value in data set [5] (setting [11]) is 61,016.

Turning to `O=c1ccc2c(O)cc3occc3c2o1` [M′2], in data set [4] (setting [10]), the “Peak Area MLM” value is given as 4707. Further, the “Peak Area HLM” value in data set [5] (setting [11]) is 1349.

For the compound `O=c1ccc2ccc3c(c2o1)C(O)C(O)O3` (stereo not drawn) [M′5], in data set [4] (setting [10]), the “Peak Area MLM” value amounted to 7725. Moreover, the “Peak Area HLM” value in data set [5] (setting [11]) is listed as 1627.

Regarding `O=c1ccc2c(O)c3ccoc3c(O)c2o1` [M3], the “Peak Area MLM” value in data set [4] (setting [10]) came to 164. Further, the “Peak Area HLM” value in data set [5] (setting [11]) is 529.

As to `O=c1ccc2cc3ccoc3c(O)c2o1` [M2], in data set [4] (mouse, microsomes, 1.5 h, 50 μM, pH 7.4), the “Peak Area MLM” value was found to be 8655. For the same compound, in data set [5] (human, microsomes, 1.5 h, 50 μM, pH 7.4), the “Peak Area HLM” value was 502.

As to `O=c1ccc2c(O)c3ccoc3cc2o1` [M1], the “Peak Area MLM” value in data set [4] (setting [10]) stood at 1019. Besides, in data set [5] (setting [11]), the “Peak Area HLM” value is on record as 557.

Regarding “6-carboxymethyl-7-hydroxyl-coumarin [M′4]”, in data set [4] (setting [10]), the “Peak Area MLM” value is listed as 96,828. Also, the “Peak Area HLM” value in data set [5] (setting [11]) is 34,274.

Regarding `CCCCS(=N)(=O)CCC(N)C(=O)O` [BSO, L-buthi-onine-S, R-sulfoxinine, reference compound], the “plasma ALT activity after sole treatment” value in data set [2] (BSO 650 mg/kg i.p. or ABT 100 mg/kg i.p. alone, at 24 h) is given as “no significant changes”. Moreover, in data set [2] (BSO 650 mg/kg i.p., over 24 h), the “hepatic GSH level after treatment with BSO alone” value is given as “time-dependent decrease at least for 6 h, while returning to a normal level at 24 h” and the “liver hazard (pathological section) after BSO alone” value is listed as “without hazard to the liver”.
